Target: PqsR (Pseudomonas aeruginosa, UniProt Q9I4X0)
Experiment: E. coli based β-galactosidase reporter gene assay (PqsR inverse agonistic activity)
Assay type: cell-based
Parameters: expressed in transfected cells; host or cells: Escherichia coli DH5α
Method: Inhibition of pqsR-dependent gene expression of test compounds was determined in an E. coli based β-galactosidase reporter gene assay.[19] Escherichia coli DH5α was transfected with pEAL08-2 plasmid encoding pqsR under control of promoter tac and β-galactosidase reporter gene lacZ under control of promoter pqsA. Antagonistic effects of compounds were evaluated in the presence of/in competition to 50 nM PQS. A positive control was used to ensure the reliability of individual assays. First, PQS was diluted in methanol and added to the wells of a glass coated 96-deep-well plate, and the solvent was evaporated. Then, compounds were added in 5 μL DMSO to final concentrations of 0.001-10 μM. Overnight cultures of E. coli DH5a×pEAL08-2 were diluted 1:100 in LB medium with ampicillin (50 μg/ml) and incubated at 37° C. with shaking until it reached an OD600 of 0.2. Finally, 995 μL of culture was added to each well and the p-galactosidase activity was determined by ortho-nitrophenyl-p-galactoside conversion in permeabilized cells after a 2.5 h incubation period (37° C., 180 rpm). OD600, OD420, and OD550 were measured using POLARstar Omega (BMG Labtech, Ortenberg, Germany), and the activity was expressed as ratio of the slope of β-galactosidase activity between basal control (no PQS) and solvent control. IC50 values of antagonists were determined by variation of the concentration of the test compounds.

PqsR, sequence (Q9I4X0 whole entry): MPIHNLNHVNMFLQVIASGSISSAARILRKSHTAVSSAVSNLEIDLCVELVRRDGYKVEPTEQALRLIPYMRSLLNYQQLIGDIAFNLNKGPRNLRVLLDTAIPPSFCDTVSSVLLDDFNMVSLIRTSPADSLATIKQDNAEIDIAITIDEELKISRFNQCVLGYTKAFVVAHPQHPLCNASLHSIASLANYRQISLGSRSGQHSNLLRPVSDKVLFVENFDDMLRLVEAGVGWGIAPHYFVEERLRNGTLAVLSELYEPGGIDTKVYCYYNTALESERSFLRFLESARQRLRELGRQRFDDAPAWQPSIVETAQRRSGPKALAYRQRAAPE

Row | SMILES | IC50
1 | FC(F)(F)c1cc(SCc2cnc(-c3ccc(Cl)cc3)s2)ccn1 [Compound 067, 2-(4-Chlorophenyl)-5-(((2-(trifluoromethyl)pyridin-4-yl)thio)methyl) thiazole] | 251 to 1000 nM
2 | FC(F)(F)c1cc(SCc2nnn(-c3ccc(Cl)cc3)n2)ccn1 [Compound 138, 4-(((2-(4-Chlorophenyl)-2H-tetrazol-5-yl)methyl)thio)-2-(trifluoromethyl)pyridine] | 251 to 1000 nM
3 | N#Cc1ccc(-c2nc(CNc3ccnc(C(F)(F)F)c3)cs2)cc1 [Compound 085, 4-(4-(((2-(Trifluoromethyl)pyridin-4-yl)amino)methyl)thiazol-2-yl)benzonitrile] | 251 to 1000 nM
4 | FC(F)(F)c1cc(NCc2ncc(-c3ccc(Cl)nc3)cn2)ccn1 [Compound 099, N-((5-(6-Chloropyridin-3-yl)pyrimidin-2-yl)methyl)-2-(trifluoromethyl)pyridin-4-amine] | 251 to 1000 nM
5 | FC(F)(F)c1cc(SCc2nnc(-c3ccc(Cl)cc3)o2)ccn1 [Compound 136, 2-(4-Chlorophenyl)-5-(((2-(trifluoromethyl)pyridin-4-yl)thio)methyl)-1,3,4-oxadiazole] | 251 to 1000 nM
6 | COc1cc(-n2cc(CNc3ccnc(C(F)(F)F)c3)nn2)ccc1Br [Compound 023, N-((1-(4-Bromo-3-methoxyphenyl)-1H-1,2,3-triazol-4-yl)methyl)-2-(trifluoromethyl)pyridin-4-amine] | 251 to 1000 nM
7 | FC(F)(F)Oc1cccc(-n2cc(CNc3ccnc(C(F)(F)F)c3)nn2)c1 [Compound 011, N-((1-(3-(Trifluoromethoxy)phenyl)-1H-1,2,3-triazol-4-yl)methyl)-2-(trifluoromethyl)pyridin-4-amine] | 51 to 250 nM
8 | FC(F)(F)c1cc(SCc2ccc(-c3cnc(Cl)nc3)cn2)ccn1 [Compound 113, 2-Chloro-5-(6-(((2-(trifluoromethyl)pyridin-4-yl)thio)methyl)pyridin-3-yl)pyrimidine] | 251 to 1000 nM
9 | FC(F)(F)c1cc(SCc2cn(-c3ccc(Cl)c(Cl)c3)nn2)ccn1 [Compound 059, 4-(((1-(3,4-Dichlorophenyl)-1H-1,2,3-triazol-4-yl)methyl)thio)-2-(trifluoromethyl)pyridine] | 51 to 250 nM
10 | Fc1cccc(-n2cc(CNc3ccnc(C(F)(F)F)c3)nn2)c1 [Compound 009, N-((1-(3-Fluorophenyl)-1H-1,2,3-triazol-4-yl)methyl)-2-(trifluoromethyl)pyridin-4-amine] | 251 to 1000 nM
11 | CSc1cccc(-n2cc(CNc3ccnc(C(F)(F)F)c3)nn2)c1 [Compound 015, N-((1-(3-(Methylthio)phenyl)-1H-1,2,3-triazol-4-yl)methyl)-2-(trifluoromethyl)pyridin-4-amine] | 51 to 250 nM
12 | Fc1ccc(-n2cc(CNc3ccnc(C(F)(F)F)c3)nn2)cc1 [Compound 010, N-((1-(4-Fluorophenyl)-1H-1,2,3-triazol-4-yl)methyl)-2-(trifluoromethyl)pyridin-4-amine] | 51 to 250 nM
13 | FC(F)(F)c1cc(OCc2nc3ccc(Oc4ccccc4)cc3o2)ccn1 [Compound 133, 6-Phenoxy-2-(((2-(trifluoromethyl)pyridin-4-yl)oxy)methyl)benzo[d]oxazole] | 251 to 1000 nM
14 | COc1ncc(-c2ccc(CSc3ccnc(C(F)(F)F)c3)nc2)cc1Cl [Compound 115, 5-Chloro-6-methoxy-6′-(((2-(trifluoromethyl)pyridin-4-yl)thio)methyl)-3,3′-bipyridine] | 251 to 1000 nM
15 | Fc1cc(Br)ccc1-n1cc(CNc2ccnc(C(F)(F)F)c2)nn1 [Compound 024, N-((1-(4-Bromo-2-fluorophenyl)-1H-1,2,3-triazol-4-yl)methyl)-2-(trifluoromethyl)pyridin-4-amine] | 51 to 250 nM
16 | FC(F)(F)c1cc(SCc2cn(-c3ccc(Br)cc3)nn2)ccn1 [Compound 058, 4-(((1-(4-Bromophenyl)-1H-1,2,3-triazol-4-yl)methyl)thio)-2-(trifluoromethyl)pyridine] | 51 to 250 nM
17 | Fc1cccc(Oc2ccc3[nH]c(CSc4ccnc(C(F)(F)F)c4)nc3c2)c1 [Compound 130, 5-(3-Fluorophenoxy)-2-(((2-(trifluoromethyl)pyridin-4-yl)thio)methyl)-1H-benzo[d]imidazole] | ≤ 50 nM
18 | FC(F)(F)c1cc(SCc2ccc(-c3ccc(Cl)nc3)cc2)ccn1 [Compound 110, 4-((4-(6-Chloropyridin-3-yl)benzyl)thio)-2-(trifluoromethyl)pyridine] | 251 to 1000 nM
19 | FC(F)(F)c1cc(NCc2cn(-c3ccc(-n4ncc5ncccc54)cc3)nn2)ccn1 [Compound 149, N-((1-(4-(1H-pyrazolo[4,3-b]pyridin-1-yl)phenyl)-1H-1,2,3-triazol-4-yl)methyl)-2-(trifluoromethyl)pyridin-4-amine] | ≤ 50 nM

Row | SMILES | IC50
20 | CN(c1ccccc1)c1ccc(-n2cc(CNc3ccnc(C(F)(F)F)c3)nn2)cc1 [Compound 029, N-((1-(4-(Methyl(phenyl)amino)phenyl)-1H-1,2,3-triazol-4-yl)methyl)-2-(trifluoromethyl)pyridin-4-amine] | 51 to 250 nM
21 | FC(F)(F)c1cc(SCc2cn(-c3ccc(Cl)cc3)nn2)ccn1 [Compound 055, 4-(((1-(4-chlorophenyl)-1H-1,2,3-triazol-4-yl)methyl)thio)-2-(trifluoromethyl)pyridine] | 251 to 1000 nM
22 | FC(F)(F)c1cc(SCc2nc(-c3ccc(Cl)cc3)no2)ccn1 [Compound 137, 3-(4-Chlorophenyl)-5-(((2-(trifluoromethyl)pyridin-4-yl)thio)methyl)-1,2,4-oxadiazole] | 251 to 1000 nM
23 | COc1ccc(-n2cc(CSc3ccnc(C(F)(F)F)c3)nn2)cc1 [Compound 062, 4-(((1-(4-methoxyphenyl)-1H-1,2,3-triazol-4-yl)methyl)thio)-2-(trifluoromethyl)pyridine] | 251 to 1000 nM
24 | FC(F)(F)c1cc(NCc2cn(-c3ccc(Cl)cc3)nn2)ccn1 [Compound 008, N-((1-(4-chlorophenyl)-1H-1,2,3-triazol-4-yl)methyl)-2-(trifluoromethyl)pyridin-4-amine] | 51 to 250 nM
25 | FC(F)(F)c1cc(NCc2cn(-c3cccc(CN4CCOCC4)c3)nn2)ccn1 [Compound 002, N-((1-(3-(Morpholinomethyl)phenyl)-1H-1,2,3-triazol-4-yl)methyl)-2-(trifluoromethyl)pyridin-4-amine] | 251 to 1000 nM
26 | FC(F)(F)c1nc(Cl)cc(SCc2nc3cc(Oc4ccccc4)ccc3[nH]2)n1 [Compound 124, 2-(((6-Chloro-2-(trifluoromethyl)pyrimidin-4-yl)thio)methyl)-5-phenoxy-1H-benzo[d]imidazole] | 251 to 1000 nM
27 | N#Cc1ccc(-n2cc(CNc3ccnc(C(F)(F)F)c3)nn2)cc1 [Compound 013, 4-(4-(((2-(trifluoromethyl)pyridin-4-yl)amino)methyl)-1H-1,2,3-triazol-1-yl)benzonitrile] | 251 to 1000 nM
28 | FC(F)(F)c1cc(SCc2nc3cc(Cl)ccc3[nH]2)ccn1 [Compound 123, 5-Chloro-2-(((2-(trifluoromethyl)pyridin-4-yl)thio)methyl)-1H-benzo[d]imidazole] | 251 to 1000 nM
29 | FC(F)(F)c1cc(SCc2ccn(-c3ccc(Cl)cc3)n2)ccn1 [Compound 135, 4-(((1-(4-chlorophenyl)-1H-pyrazol-3-yl)methyl)thio)-2-(trifluoromethyl)-pyridine] | 251 to 1000 nM
30 | FC(F)(F)c1cc(NCc2csc(-c3cccc(Oc4ccccc4)c3)n2)ccn1 [Compound 089, N-((2-(3-Phenoxyphenyl)thiazol-4-yl)methyl)-2-(trifluoromethyl)pyridin-4-amine] | 51 to 250 nM
31 | FC(F)(F)c1cc(SCc2ccc(-c3ccc(Oc4ccccc4)cc3)cn2)ccn1 [Compound 109, 4-(((5-(4-phenoxyphenyl)pyridin-2-yl)methyl)thio)-2-(trifluoromethyl)pyridine] | 251 to 1000 nM
32 | Fc1ccc(-n2cc(CNc3ccnc(C(F)(F)F)c3)nn2)cc1F [Compound 020, N-((1-(3,4-Difluorophenyl)-1H-1,2,3-triazol-4-yl)methyl)-2-(trifluoromethyl)pyridin-4-amine] | 51 to 250 nM
33 | FC(F)(F)c1cc(NCc2cn(-c3ccc(Oc4ccccn4)c(Cl)c3)nn2)ccn1 [Compound 034, N-((1-(3-Chloro-4-(pyridin-2-yloxy)phenyl)-1H-1,2,3-triazol-4-yl)methyl)-2-(trifluoromethyl)pyridin-4-amine] | ≤ 50 nM
34 | FC(F)(F)c1cc(NCc2cn(-c3cccc(Cl)c3)nn2)ccn1 [Compound 003, N-((1-(3-Chlorophenyl)-1H-1,2,3-triazol-4-yl)methyl)-2-(trifluoromethyl)pyridin-4-amine] | 51 to 250 nM
35 | FC(F)(F)c1ccc(-n2cc(CNc3ccnc(C(F)(F)F)c3)nn2)cc1 [Compound 014, 2-(Trifluoromethyl)-N-((1-(4-(trifluoromethyl)phenyl)-1H-1,2,3-triazol-4-yl)methyl)pyridin-4-amine] | 51 to 250 nM
36 | COc1ccc(-c2nc(CNc3ccnc(C(F)(F)F)c3)cs2)cc1 [Compound 086, N-((2-(4-Methoxyphenyl)thiazol-4-yl)methyl)-2-(trifluoromethyl)pyridin-4-amine] | 251 to 1000 nM
37 | FC(F)(F)c1nccc(SCc2cn(-c3ccc(Cl)cc3)nn2)n1 [Compound 060, 4-(((1-(4-chlorophenyl)-1H-1,2,3-triazol-4-yl)methyl)thio)-2-(trifluoromethyl)pyrimidine] | 251 to 1000 nM

Source: patent publication US11883387B2, “PqsR inverse agonists” (HELMHOLTZ-ZENTRUM FÜR INFEKTIONSFORSCHUNG GMBH, priority 2018, dated 2024)
